Experimental data published in patent publication EP4670735A1, “PRODRUG NANOPARTICLE FOR TUMOR-TARGETED ULTRASOUND-[…] THERAPY” (Schleuning, Christian, priority 2024, dated 2025).

Experiments:
[1] = test system: human breast cancer (MCF-7) cells; experiment: Cytotoxicity (MTT) in the dark or upon exposure to ultrasound radiation; type: cell-based; details: 4 h incubation, then 44 h, concentrations correspond to the platinum complex
Method: (§1) 6 × 10^3 cells were seeded onto 96-well plates and allowed to adhere overnight. The cells were treated with increasing concentrations of the compound which was diluted in cell media to a total volume of 200 µL. The cells were incubated with the compound for 4 h and after this time the medium refreshed. The cells for the dark group were grown for an additional 44 h at 37 °C. The cells for the ultrasound group were exposed to ultrasound radiation (1.5 W/cm^2, 2 min) with an Intelect Mobile 2 Ultrasound Emitter (DJO Global). The cells for the ultrasound group were grown for an additional 44 h at 37 °C. After this incubation time, the culture medium was substituted with PBS buffer containing 3-(4,5-dimethylthiazol-2-yl)-2,5-diphenyltetrazolium bromide (MTT) with a final concentration of 12 µM. The cells were incubated for 2 h at 37 °C and 10 % CO2 After this time, the DPBS-MTT mixture was removed and the wells filled with 200 µL DMSO. Using a 620 nm reference wavelength, the absorption of the formazan was measured at 550 nm with an Infinite M Nano plus Microplate reader (Tecan).
(§2) In contrast, the nanoparticles induced a cytotoxic effect upon exposure to ultrasound radiation. Table 1 reflects the respective data, which are also visualized in Fig. 3. Table 1: Cytotoxicity (IC50 in µM) of oxaliplatin, NP-Pt-1 and NP-Pt-2 in the dark or upon exposure to ultrasound radiation in mouse colon carcinoma (CT-26) and human breast cancer (MCF-7) cells. The mentioned concentrations correspond to the platinum complex.

[2] = test system: mouse colon carcinoma (CT-26) cells; experiment: as above; type: cell-based; details: 4 h incubation, then 44 h, concentrations correspond to the platinum complex
Method: as §1, §2

In the case of `O=C1[O][Pt]2([NH][C@@H]3CCCC[C@H]3[NH]2)[O]C1=O` [Oxaliplatin], the IC50 ([1]; MCF-7, dark, 2880 min) is reported as 24.5 ± 4.6 µM, the IC50 ([1]; MCF-7, ultrasound (1.5 W/cm^2, 2 min)) is reported as 22.4 ± 4.8 µM and the IC50 ([2]; CT-26, dark, 2880 min) is reported as 20.4 ± 3.1 µM. It also gave an IC50 ([2]; CT-26, ultrasound (1.5 W/cm^2, 2 min)) of 19.3 ± 3.4 µM.
